Source: patent US10800754B2, “Heterocyclic amide compound” (TAKEDA PHARMACEUTICAL COMPANY LIMITED, priority 2016, dated 2020)

Columns and labels:
[1] = system: human ovarian cancer cell A2780; test: proliferation inhibitory activity against A2780 cells (CellTiter-Glo); format: cell-based; conditions: A2780, 72 h, 1 μM test compound, 3 days of culture, read-out: proliferation inhibitory rate (%) of A2780 cells
Method: The proliferation inhibitory activity of the compound of the present invention against human ovarian cancer cell A2780 was evaluated by the following method.
Human ovarian cancer cells A2780 were seeded in a 384 well culture plate at 1000 cells in 30 μL of medium per well by using RPMI-1640 medium (Wako Pure Chemical Industries, Ltd.) containing 10% fetal bovine serum and penicillin/streptomycin. The next day, 10 μL of RPMI-1640 medium containing the test compound was added to the cells. After 3 days of culture, 20 μL of CellTiter-Glo Luminescent Cell Viability Assay solution (Promega, Fitchburg, Wis., US) was added. The luminescence signal was measured using EnVision (PerkinElmer, Waltham, Mass., US) and the inhibitory rate (%) of the test compound was calculated with a well free of seeding of cell as 100% inhibition.

human PRS protein = biological target: T1, human PRS protein (Homo sapiens, UniProt P07814); test: PRS inhibitory activity (ATP/[32P]pyrophosphate exchange enzyme reaction); format: biochemical; conditions: 300 nM test compound; recombinant human PRS (EPRS 998-1512); read-out: inhibitory rate (%) of PRS
T1 construct: to construct His-Avi-hEPRS (998-1512) expression plasmid; His tag (N); Avi tag (N); TEV cleavage site (ENLYFQ/GS, encoded by forward primer hEPRS-TEV-NheF) (N); made in house; host or cells: E. coli BL21(DE3)
T1 sequence (P07814 998-1512): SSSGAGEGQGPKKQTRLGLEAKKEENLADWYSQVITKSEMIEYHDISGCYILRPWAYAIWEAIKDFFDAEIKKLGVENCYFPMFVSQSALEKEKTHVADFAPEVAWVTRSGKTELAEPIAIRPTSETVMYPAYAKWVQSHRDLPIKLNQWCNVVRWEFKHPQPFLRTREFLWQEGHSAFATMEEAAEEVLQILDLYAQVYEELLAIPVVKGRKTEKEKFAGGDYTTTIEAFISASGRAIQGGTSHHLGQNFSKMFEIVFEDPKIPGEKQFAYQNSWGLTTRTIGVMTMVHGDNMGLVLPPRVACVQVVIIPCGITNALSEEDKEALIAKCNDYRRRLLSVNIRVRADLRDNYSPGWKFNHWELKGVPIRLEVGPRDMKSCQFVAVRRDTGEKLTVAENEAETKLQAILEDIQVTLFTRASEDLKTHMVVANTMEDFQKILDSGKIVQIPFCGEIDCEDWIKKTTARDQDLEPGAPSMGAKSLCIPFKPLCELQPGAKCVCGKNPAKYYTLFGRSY
In short: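 His-Avi-tagged human EPRS catalytic domain (998-1512), E. coli-expressed, was preincubated 60 min with compound (enzyme added as 40 nM solution) in Tris pH 7.5, KCl, DTT, Tween 20 and MgCl2. The substrate solution contained 300 μM ATP, 160 μM L-proline, and 400 μM pyrophosphate with [32P]pyrophosphate; reaction ran 30 min at room temperature. Charcoal-captured label was counted, with enzyme-free wells taken as 100% inhibition.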

| inhibition at 0.3 µM (human PRS protein) [%] | Structure (SMILES) | inhibition at 1 µM [1] [%] |
| --- | --- | --- |
| 98 | N#C[C@@]1(C2CC2)CCN(c2ccnc(NC(=O)Cc3cccc(-c4cnn(CC5CCC5)c4)c3)c2)C1=O [Example 72, N-(4-((3S)-3-cyano-3-cyclopropyl-2-oxopyrrolidin-1-yl)pyridin-2-yl)-2-(3-(1-(cyclobutylmethyl)-1H-pyrazol-4-yl)phenyl)acetamide] | 65 |
| 98 | COCCCn1cc(-c2cccc(CC(=O)Nc3cc(N4CC[C@@](C#N)(C5CC5)C4=O)ccn3)c2)cn1 [Example 74, N-(4-((3S)-3-cyano-3-cyclopropyl-2-oxopyrrolidin-1-yl)pyridin-2-yl)-2-(3-(1-(3-methoxypropyl)-1H-pyrazol-4-yl)phenyl)acetamide] | 62 |
| 98 | CC1(Cn2cc(-c3cccc(CC(=O)Nc4cc(N5CC[C@@](C#N)(C6CC6)C5=O)ccn4)c3)cn2)COC1 [Example 77, N-(4-((3S)-3-cyano-3-cyclopropyl-2-oxopyrrolidin-1-yl)pyridin-2-yl)-2-(3-(1-((3-methyloxetan-3-yl)methyl)-1H-pyrazol-4-yl)phenyl)acetamide] | 63 |
| 100 | N#C[C@@]1(C2CC2)CCN(c2ccnc(NC(=O)Cc3cccc(-c4cnn(CC5CC5(F)F)c4)c3)c2)C1=O (stereo partly drawn) [Example 78, N-(4-((3S)-3-cyano-3-cyclopropyl-2-oxopyrrolidin-1-yl)pyridin-2-yl)-2-(3-(1-((2,2-difluorocyclopropyl)-methyl)-1H-pyrazol-4-yl)phenyl)acetamide] | 80 |
| 100 | N#C[C@@]1(C2CC2)CCN(c2ccnc(NC(=O)Cc3cccc(-c4cnn(Cc5ccccc5)c4)c3)c2)C1=O [Example 79, 2-(3-(1-benzyl-1H-pyrazol-4-yl)phenyl)-N-(4-((3S)-3-cyano-3-cyclopropyl-2-oxopyrrolidin-1-yl)pyridin-2-yl)acetamide] | 65 |
| 99 | N#C[C@@]1(C2CC2)CCN(c2ccnc(NC(=O)Cc3cccc(-c4cnn(CC5CCCCO5)c4)c3)c2)C1=O (stereo partly drawn) [Example 83, N-(4-((3S)-3-cyano-3-cyclopropyl-2-oxopyrrolidin-1-yl)pyridin-2-yl)-2-(3-(1-(tetrahydro-2H-pyran-2-ylmethyl)-1H-pyrazol-4-yl)phenyl)acetamide] | 58 |
| 97 | N#C[C@@]1(C2CC2)CCN(c2ccnc(NC(=O)Cc3cccc(-c4cnn(CC5CCOCC5)c4)c3)c2)C1=O [Example 84, N-(4-((3S)-3-cyano-3-cyclopropyl-2-oxopyrrolidin-1-yl)pyridin-2-yl)-2-(3-(1-(tetrahydro-2H-pyran-4-ylmethyl)-1H-pyrazol-4-yl)phenyl)acetamide] | 55 |
| 99 | N#C[C@@]1(C2CC2)CCN(c2ccnc(NC(=O)Cc3cccc(-c4cnn(CC5COCCO5)c4)c3)c2)C1=O (stereo partly drawn) [Example 85, N-(4-((3S)-3-cyano-3-cyclopropyl-2-oxopyrrolidin-1-yl)pyridin-2-yl)-2-(3-(1-(1,4-dioxan-2-ylmethyl)-1H-pyrazol-4-yl)phenyl)acetamide] | 54 |
| 100 | N#C[C@@]1(C2CC2)CCN(c2ccnc(NC(=O)Cc3cccc(-c4cnn(CC5CC(F)(F)C5)c4)c3)c2)C1=O [Example 87, N-(4-((3S)-3-cyano-3-cyclopropyl-2-oxopyrrolidin-1-yl)pyridin-2-yl)-2-(3-(1-((3,3-difluorocyclobutyl)-methyl)-1H-pyrazol-4-yl)phenyl)acetamide] | 74 |
| 98 | N#C[C@@]1(C2CC2)CCN(c2ccnc(NC(=O)Cc3cccc(-c4cnn(CCCC(F)(F)F)c4)c3)c2)C1=O [Example 90, N-(4-((3S)-3-cyano-3-cyclopropyl-2-oxopyrrolidin-1-yl)pyridin-2-yl)-2-(3-(1-(4,4,4-trifluorobutyl)-1H-pyrazol-4-yl)phenyl)acetamide] | 61 |
